Laboratory results from PubChem BioAssay (NCI).
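Following 48 hours of exposure in 96-well plates, responses at five concentrations were used to interpolate endpoints linearly. TGI: concentration producing complete growth inhibition.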

Columns and labels:
Assay in all cases: NCI-60 cell line screen, 48 h
A498 renal = system: A498 renal
ACHN renal = system: ACHN renal
BT-549 breast = system: BT-549 breast
DU-145 prostate = system: DU-145 prostate
HOP-92 NSCLC = system: HOP-92 NSCLC
HS 578T breast = system: HS 578T breast
MALME-3M melanoma = system: MALME-3M melanoma
OVCAR-4 ovarian = system: OVCAR-4 ovarian
RPMI-8226 leukemia = system: RPMI-8226 leukemia
RXF 393 renal = system: RXF 393 renal
SK-MEL-2 melanoma = system: SK-MEL-2 melanoma
UACC-257 melanoma = system: UACC-257 melanoma

Row | Structure (SMILES) | TGI (A498 renal) | TGI (ACHN renal) | TGI (BT-549 breast) | TGI (DU-145 prostate) | TGI (HOP-92 NSCLC) | TGI (HS 578T breast) | TGI (MALME-3M melanoma) | TGI (OVCAR-4 ovarian) | TGI (RPMI-8226 leukemia) | TGI (RXF 393 renal) | TGI (SK-MEL-2 melanoma) | TGI (UACC-257 melanoma)
1 | COc1cc(C2SC(N)=Nc3c2c(C)nn3C(=O)c2ccccc2O)ccc1O (centres undefined) | > 10 µM | > 10 µM | > 10 µM | > 10 µM | > 10 µM | > 10 µM | > 10 µM | > 6.37 µM | > 7.78 µM | > 10 µM | > 10 µM | > 10 µM
2 | CCOP(=O)(C/C=C/Cn1nc(Br)c(=O)[nH]c1=O)OCC | > 100 µM | > 100 µM | > 100 µM | > 100 µM | > 100 µM | > 100 µM | > 100 µM | > 100 µM | > 100 µM | > 100 µM | > 100 µM | > 100 µM
